System: C. albicans surface proteins
Test: nLC-MSMS semi-quantitation of C. albicans surface proteins in supernatants of heparin-treated versus untreated organisms
Format: cell-based, Candida albicans
Procedure: In other systems, heparin has been reported to cleave surface proteins (56), change protein conformation (57), and bind trypsin-sensitive lysine and arginine residues in histone H1 (58). In order to understand whether incubation with heparin changed the conformation of C. albicans surface proteins, 1×10^7 C. albicans were incubated for one hour at […] on a rotator with pharmacologic heparin (20,000 units/ml) diluted in RPMI-HEPES to a working concentration of 250 units/ml. C. albicans 1×10^7 C. albicans in an equal volume of RPMI-HEPES served as control. Supernatants were removed. 300 μl of Hep+ and Hep− supernatants were incubated with 100 μl avidin agarose beads (Thermo Scientific) for 60 min at room temperature on a rotator in the presence of 50 units heparin (Hep+); an equal volume of RPMI-HEPES was substituted for heparin in the Hep− supernatants. Beads were pelleted, and 100 μl beads were incubated with 100 μl 3.0 M NaCl for 30 mins at room temperature on a rotator. Beads were pelleted and the supernatants were withdrawn; 100 μl TCA was added to 100 μl Hep+ or 100 μl Hep− supernatants and incubated on ice overnight at 4° C. The TCA precipitates were stored at −80° C. until analysis by mass spectroscopy.
Six biological replicates of TCA precipitated protein pellets from equal cellular equivalence of heparin-treated (Hep+) and untreated (Hep−) conditioned medium from cultures of C. albicans were each solubilized in 50 μL Laemmli gel buffer. To remove any residual TCA and to further concentrate the samples, each was subjected to buffer exchange and concentration using an Amicon ultra 3 kDa microfuge filtration cartridge at 14,000×g for 15 min with five subsequent additions of 50 μL of 1× Laemmli gel buffer between spins. The resulting retained proteins (6 Hep+ and 6 Hep−) were subsequently prepared for SDS-PAGE by combining into two pools of three samples for the Hep+ and Hep− conditioned medium. The replicate sample pools were loaded onto two 4-12% mini gels and separated using the MOPS buffer system followed by silver staining to visualize the proteins using the Sigma Proteosilver system. The proteins were prepared for identification and quantitation by mass spectrometry by gridding the gel lanes from the replicates of Hep+ and Hep− samples into 11 equal regions followed by in gel trypsin digestion and extraction of peptides as described (59)
The recovered peptides from the gridded gel sections were analyzed by liquid chromatography coupled nano-electrospray mass spectrometry (nLC-MSMS) on a TripleTOF 5600 mass spectrometer (AB Sciex, Toronto Canada) attached to an Eksigent (Dublin Calif.) nanoLC ultra nanoflow system. […]

[1] = heparin 250 units/ml, compared to untreated organisms

heparin
increase in VPTTDVSVVDLTVR from Tdh3 in supernatants [1]: five-fold increase | increase in intensity of IDVVDQAK from Eno1 in supernatants [1]: seven-fold increase | increase in intensity of SLLDAAVK from Pgk1 in supernatants [1]: ten-fold increase | increased intensities of other peptides from Eno1, Pgk1 and Tdh3 (versus corresponding peptides from untreated organisms, data not shown): 10-16 fold
